Data: US11046991B2, “Rapid preconcentration of viable bacteria using magnetic ionic liquid for PCR amplification and culture-based diagnostics” (priority 2017, dated 2021)
Where two headings read alike, the source gives them in different places.

Key:
[1] = Hydrophobicity comparison: 50 μL MIL in 12 mL water, vortexed and heated to 85° C.; assay type: physicochemical; conditions: 50 μL MIL in 12 mL deionized water, 85° C. for 10 minutes
Procedure: […] […] Vortexing the MIL droplet caused dispersion of the MIL into fine microdroplets that were suspended within the aqueous solution, ultimately settling at the bottom of the vessel. […] Each MIL was vortexed and heated to 85° C. for 10 minutes.

E. coli K12 cells = assay type: cell-based
Procedure: Since culture-based methods are contingent upon the isolation of viable bacteria, the detection of E. coli following MIL-based cell extraction is influenced by the cytotoxicity of MILs. To study the effect of MILs on the growth of E. coli, a 1 mL aliquot of LB media was inoculated with 8.0×10^2±0.5×10^2 CFUs mL^−1 and spiked with approximately 10 μL of a MIL. The mixture was agitated by vortex to simulate the recovery procedure after which a 100 μL aliquot of the suspension was plated on selective agar.

[2] = 25° C.; cited from earlier work
[3] = Thermal stability, MIL film in GC capillary with flame ionization detection; assay type: physicochemical; conditions: for onset of decomposition (thermal stability): 40° C. to 350° C. at 1° C./min
Procedure: The thermal stability of all exemplary MILs was tested by monitoring the thermal volatilization/decomposition of the MIL when the MIL was used as a stationary phase in gas chromatography. To achieve this, an approximate 0.25-0.28 μm film of IL/MIL was immobilized on the inner wall of a fused silica capillary. The IL/MIL coated capillary was then heated slowly in a GC oven and an ultra-sensitive flame ionization detector (FID) was used to detect any volatilization/decomposition of the IL/MIL. These tests were run using a temperature program starting at 40° C. and increased at 1° C./min to 350° C. on an Agilent 6850 gas chromatograph with a flame ionization detector (Santa Clara, Calif., USA). The [P66614^+] [Cl^−] IL was also coated under the same conditions and was used as a reference.

[4] = Magnetic susceptibility, SQUID magnetometer; assay type: physicochemical; conditions: for μeff, effective magnetic moment: from magnetic susceptibility data, SQUID
Procedure: The μeff values for each exemplary MIL were determined using a Quantum Design MPMS SQUID magnetometer following procedures similar to those previously reported. (Y. Mudryk, P. Manfrinetti, V. Smetana, J. Liu, M. L. Fornasini, A. Provino, V. K. Pecharsky, G. J. Miller and K. A. Gschneidner, J. Alloys Compd, 2013, 557, 252-260).

E. coli [5] = assay: PCR amplification of LB back-extraction solution after MIL-based extraction; conditions: for E. coli concentration at which bacterial pDNA was detected by PCR: cell recovery in LB media prior to PCR, 2 mL sample; for amplicon after extraction of cell filtrate (cell-free DNA): filtrate of 1.68×10^5 CFUs mL^−1 suspension through 0.22 μm filter
Procedure: (§1) A general schematic for the MIL-based cell extraction procedure is depicted in FIG. 10. In a 4 mL screw cap glass vial, a controlled volume (e.g., 10 μL) of MIL was added to 2 mL of diluted cell suspension and dispersed into microdroplets by vortex agitation for 15-120 s. Following the dispersive extraction, a 0.9 T magnetic field was applied to collect the cell-enriched MIL extraction phase. After the aqueous phase was decanted, the MIL was subjected to a static wash with 2 mL of deionized water to ensure that residual cell suspension was removed. The extracted E. coli was recovered from the MIL solvent by vortexing the MIL in 1 mL of LB media from 30 to 300 s. Following back-extraction, aliquots of the cell-enriched LB media were cultured on selective agar as well as analyzed by PCR.
Following the recovery of E. coli cells from the MIL extraction phase, an aliquot of the LB back-extraction solution was analyzed by PCR. […] The thermal protocol used for amplification of the MTAP gene was as follows: 5 min initial denaturation at 95° C. followed by 30 cycles of 30 s denaturation at 95° C., 45 s annealing at 54° C., and elongation for 45 s at 72° C.
After thermal cycling, the PCR products were mixed with 10 μL of bromophenol blue tracking dye solution (30% glycerol v/v) and loaded on a 1% agarose gel stained with SYBR Safe DNA gel stain. The PCR amplicon was subjected to electrophoresis at approximately 4 V cm^−1 and subsequently visualized using a transilluminator.
To improve detection limits, cells were recovered from the MIL phase using […] and a 1 μL aliquot of LB media was analyzed by PCR amplification. […] MILs as extraction media.
MIL. […] 1999; 37:2479-82). It should be noted that PCR assays are unable to distinguish between live and dead cells and, therefore, are complementary to microbiological culture for the determination of viable cells in a sample.

[6] = 1 second vial inversion (viscosity comparison); assay type: physicochemical; conditions: 1 second inversion of each MIL
From the text: FIG. 2 compares the viscosities of [P66614^+]2[MnCl4^2−], [P66614^+][Ni(hfacac)3^−], and [P66614^+][Nd(hfacac)4^−] by performing a 1 second inversion of each MIL.

E. coli [7] = assay: MIL-based extraction of viable E. coli, selective culture and colony enumeration; conditions: aqueous solutions of 1.68×10^5 CFUs mL^−1
Procedure: For each cell extraction experiment, 2 mL of sterile LB media with 100 μg mL^−1 carbenicillin was inoculated with 0.5 μL of E. coli glycerol stock and incubated overnight at 37° C. and 225 rpm. The overnight culture was centrifuged at 2820 g for 8 min and the supernatant discarded. The cells were then vortexed for 15 s in 2 mL of deionized water and centrifuged once again at 2820 g for 8 min. Following a total of three washes, the cells were re-suspended in 1 mL of deionized water. The concentration of cells within the suspension was initially determined by measuring the optical density of the sample at 600 nm (OD600), where an OD600 equal to 1.000 represents 8×10^8 E. coli cells mL^−1. The bacterial suspension was diluted to an OD600 value of 0.021 (1.68×10^7 cells mL^−1), after which 10-fold serial dilutions were performed to yield the desired sample concentration. Since the sample concentrations were below the detection limit of the spectrophotometer, the final concentration of each sample (in CFUs mL^−1) was obtained using a plate counting method. Briefly, 15 μL of diluted cell suspension were mixed with 985 μL of LB media and vortexed for 3 min. A […] aliquot of the suspension was spread onto a selective LB agar plate with 100 μg mL^−1 carbenicillin and incubated overnight at 37° C. to obtain visible colonies.
as §1
To detect viable bacteria recovered from the MIL extraction solvent, a culture-based method selective for E. coli transformants was employed. Following MIL-based extraction, a 100 μL aliquot of the LB back-extraction solution was plated on LB agar containing 100 μg mL^−1 carbenicillin and incubated overnight at 37° C. Visible colonies were counted, tabulated, and compared to the colonies obtained for the sample prior to extraction. The enrichment factor (EF) from the MIL-based extraction was calculated by Equation 1, where CMIL is the concentration of CFUs within the MIL extraction phase and CS represents the concentration of CFUs in the bacterial suspension prior to extraction. EF=CMIL/CS Equation 1
To determine if MILs can extract viable E. coli cells, aqueous solutions of 1.68×10^5 CFUs mL^−1 were extracted with each of the seven MILs using an approach that is similar to one depicted in FIG. 10. […] [Co(hfacac)3^−] MILs with the greatest number of colonies obtained from the Ni(II)-based MIL extractions.

[8] = Pipette transfer at room temperature (preliminary viscosity testing); assay type: physicochemical; conditions: neat MIL, without heating
Procedure: (§2) Pairing of intermediate 1a to an imidazolium-based cation was carried out for preliminary viscosity and hydrophobicity testing. A metathesis reaction was performed between 1-(6-hydroxyhexyl)-3-methylimidazolium chloride [MC6OHIM^+][Cl^−] and intermediate 1a to form [MC6OHIM^+] [Co(hfacac)3^−]. […] Since the broad applicability of hydrophobic MILs is very much dependent upon the ease with which they can be transferred using traditional liquid handling methods, the [P66614^+] cation was selected for preparation of the hfacac-based MILs.

[9] = Water solubility observation of intermediates and preliminary MILs (hydrophobicity testing); assay type: physicochemical; conditions: color change in the aqueous solution two hours after addition of the MIL
Procedure: The [P66614^+][Cl^−] IL is commercially available.
as §2

[10] = LB media with 8.0×10^2 CFUs mL^−1, approximately 10 μL of MIL, compared to unexposed standard

| Compound | dissolution into the aqueous phase [1] | influence on the growth of E. coli (E. coli K12 cells; [10]) | viscosity [2] | μeff, effective magnetic moment [4] | E. coli concentration at which bacterial pDNA was detected by PCR (E. coli [5]) | further results |
| --- | --- | --- | --- | --- | --- | --- |
| CCCCCCCCCCCCCC[P+](CCCCCC)(CCCCCC)CCCCCC [No. 1, [P66614^+] tetrachloroferrate(III), reference compound] | dissolving into the aqueous solution | hindered the proliferation of cells | 650 cP |  |  |  |
| CCCCCCCCCCCCCC[P+](CCCCCC)(CCCCCC)CCCCCC.O=C(C=C([O-])C(F)(F)F)C(F)(F)F.O=C(C=C([O-])C(F)(F)F)C(F)(F)F.O=C(C=C([O-])C(F)(F)F)C(F)(F)F.O=C(C=C([O-])C(F)(F)F)C(F)(F)F.[Nd+3] [MIL 6, [P66614^+] tetrakis(hexafluoroacetylaceto)neodymate(III)] | no sign of dissolution into the aqueous phase | little to no influence on the growth of E. coli |  | 2.8 μB | 1.68×10^5 CFUs mL^−1 | onset of decomposition (thermal stability) [3]: around 225 °C; amplicon after extraction of cell filtrate (cell-free DNA) (E. coli [5]): No amplicon was detected; movement down the vial [6]: flow easily toward the bottom of the vial |
| CCCCCCCCCCCCCC[P+](CCCCCC)(CCCCCC)CCCCCC.[Cl-] [[P66614^+] [Cl^−], Trihexyl(tetradecyl)phosphonium chloride, reference compound] |  |  |  |  |  | thermal decomposition compared with the MILs ([3]; reference): lowest thermal decomposition |
| CCCCCCCCCCCCCC[P+](CCCCCC)(CCCCCC)CCCCCC.O=C(C=C([O-])C(F)(F)F)C(F)(F)F.O=C(C=C([O-])C(F)(F)F)C(F)(F)F.O=C(C=C([O-])C(F)(F)F)C(F)(F)F.[Mn+2] [MIL 2, [P66614^+] tris(hexafluoroacetylaceto)manganate(II)] |  |  |  |  |  | degradation start, higher than the cobalt-based MIL [3]: approximately 25 °C; μeff ([4]; at higher temperatures): 5.5 μB; μeff ([4]; at lower temperatures): 5.8 μB; visible colonies after back-extraction with LB media and culture on selective agar (E. coli [7]): did not yield any visible colonies; influence on the growth of E. coli (E. coli K12 cells): little to no influence on the growth of E. coli |
| CCCCCCCCCCCCCC[P+](CCCCCC)(CCCCCC)CCCCCC.O=C(C=C([O-])C(F)(F)F)C(F)(F)F.O=C(C=C([O-])C(F)(F)F)C(F)(F)F.O=C(C=C([O-])C(F)(F)F)C(F)(F)F.[Co+2] [MIL 1, trihexyl(tetradecyl)phosphonium tris(hexafluoroacetylaceto)cobaltate(II)] | no sign of dissolution into the aqueous phase |  |  | 4.3 μB | 1.68×10^5 CFUs mL^−1 | sharp increase in the rate of decomposition [3]: around 200 °C; onset of decomposition (thermal stability) [3]: approximately 130 °C; influence on the growth of E. coli (E. coli K12 cells): little to no influence on the growth of E. coli |
| CCCCCCCCCCCCCC[P+](CCCCCC)(CCCCCC)CCCCCC.CCCCCCCCCCCCCC[P+](CCCCCC)(CCCCCC)CCCCCC.CCCCCCCCCCCCCC[P+](CCCCCC)(CCCCCC)CCCCCC.[Cl][Gd-3]([Cl])([Cl])([Cl])([Cl])[Cl] [[P66614]3[GdCl6^3−], [P66614] hexachlorogadolinate(III)] |  |  | 18390 cP |  |  |  |
| CCCCCCCCCCCCCC[P+](CCCCCC)(CCCCCC)CCCCCC.O=C(C=C([O-])C(F)(F)F)C(F)(F)F.O=C(C=C([O-])C(F)(F)F)C(F)(F)F.O=C(C=C([O-])C(F)(F)F)C(F)(F)F.O=C(C=C([O-])C(F)(F)F)C(F)(F)F.[Gd+3] [MIL 5, [P66614^+] tetrakis(hexafluoroacetylaceto)gadolinate(III)] |  | hindered the proliferation of cells |  | 7.7 μB |  |  |
| CCCCCCCCCCCCCC[P+](CCCCCC)(CCCCCC)CCCCCC.O=C(C=C([O-])C(F)(F)F)C(F)(F)F.O=C(C=C([O-])C(F)(F)F)C(F)(F)F.O=C(C=C([O-])C(F)(F)F)C(F)(F)F.O=C(C=C([O-])C(F)(F)F)C(F)(F)F.[Dy+3] [MIL 4, [P66614^+] tetrakis(hexafluoroacetylaceto)dysprosate(III)] |  | little to no influence on the growth of E. coli |  | 9.7 μB | 1.68×10^5 CFUs mL^−1 | amplicon after extraction of cell filtrate (cell-free DNA) (E. coli [5]): No amplicon was detected |
| C[n+]1ccn(CCCCCCO)c1.O=C(C=C([O-])C(F)(F)F)C(F)(F)F.O=C(C=C([O-])C(F)(F)F)C(F)(F)F.O=C(C=C([O-])C(F)(F)F)C(F)(F)F.[Co+2] [[MC6OHIM^+] [Co(hfacac)3^−]] |  |  |  |  |  | transfer with a pipette [8]: could not be transferred with a pipette; solubility in water [9]: soluble in water |
| CCCCCCCCCCCCCC[P+](CCCCCC)(CCCCCC)CCCCCC.CCCCCCCCCCCCCC[P+](CCCCCC)(CCCCCC)CCCCCC.[Cl][Mn-2]([Cl])([Cl])[Cl] [[P66614^+]2[MnCl4^2−], [P66614^+] tetrachloromanganate(II), reference compound] |  |  | 75230 cP |  |  | movement down the vial [6]: little to no movement down the vial |
